These results are taken from patent US20030045680A1, “Peptidic modulators of the androgen receptor” (Praecis Pharmaceuticals Inc., priority 2001, published 2003).

Square brackets hold non-standard residues; d marks the D form. Peptide text beside a SMILES is read from it.

B1: Ac-FMSETQSSPTKGVLMYQPSSV-NH2 (peptide)
peptide: Ac-FMSETQSSPTKGVLMYQPSSV-NH2
notes: synthetic peptide of the series based on amino acids 423-548 of ARIP3; also called Cmpd No. 5
B2: Ac-FMSETQSSPTK-NH2 (peptide)
peptide: Ac-FMSETQSSPTK-NH2
notes: synthetic peptide of the series based on amino acids 423-548 of ARIP3; also called Cmpd No. 11
B3: Ac-IESFSD-NH2 (peptide)
peptide: Ac-IESFSD-NH2
notes: variant of Cmpd 49 (IESSSD); also called Cmpd No. 34
B4: Ac-IESVSD-NH2 (peptide)
peptide: Ac-IESVSD-NH2
notes: variant of Cmpd 49 (IESSSD); also called Cmpd No. 36
B5: Ac-IESSSD-NH2 (peptide)
peptide: Ac-IESSSD-NH2
notes: truncation of Cmpd 10; also called Cmpd No. 49
B6: Ac-TIESSS-NH2 (peptide)
peptide: Ac-TIESSS-NH2
notes: truncation of Cmpd 10; also called Cmpd No. 47
B7: Ac-TIESSSD-NH2 (peptide)
peptide: Ac-TIESSSD-NH2
notes: truncation of Cmpd 10; also called Cmpd No. 29
B8: Ac-PAAIPPSLTDYSVPFHHTPVSSMSSDL-NH2 (peptide)
peptide: Ac-PAAIPPSLTDYSVPFHHTPVSSMSSDL-NH2
notes: synthetic peptide of the series based on amino acids 423-548 of ARIP3; also called Cmpd No. 8
B9: Ac-LTIESSSDEE-NH2 (peptide)
peptide: Ac-LTIESSSDEE-NH2
notes: synthetic peptide of the series based on amino acids 423-548 of ARIP3; also called Cmpd No. 10
B10: Ac-LTIESSSDEEEDPPAKRKAIF-NH2 (peptide)
peptide: Ac-LTIESSSDEEEDPPAKRKAIF-NH2
notes: synthetic peptide of the series based on amino acids 423-548 of ARIP3; also called Cmpd No. 3
B11: Ac-SVPFHHTPVS-NH2 (peptide)
peptide: Ac-SVPFHHTPVS-NH2
notes: synthetic peptide of the series based on amino acids 423-548 of ARIP3; also called Cmpd No. 13
B12: Ac-LTIESSSDE-NH2 (peptide)
peptide: Ac-LTIESSSDE-NH2
notes: truncation of Cmpd 10; also called Cmpd No. 25
B13: Ac-KVESSSVFSKPASVTVASDA-NH2 (peptide)
peptide: Ac-KVESSSVFSKPASVTVASDA-NH2
notes: synthetic peptide of the series based on amino acids 423-548 of ARIP3; also called Cmpd No. 1
B14: Ac-IESSSDE-NH2 (peptide)
peptide: Ac-IESSSDE-NH2
notes: truncation of Cmpd 10; also called Cmpd No. 53
B15: Ac-SVPFHHTPVSSMSSDL-NH2 (peptide)
peptide: Ac-SVPFHHTPVSSMSSDL-NH2
notes: synthetic peptide of the series based on amino acids 423-548 of ARIP3; also called Cmpd No. 12

As a reminder, the IC50 is the midpoint of a concentration-inhibition curve.

The first assay addresses glutathione S-transferase/human androgen receptor DNA binding domain (amino acids 505-635) (human) (UniProt P10275). The assay is described as follows: ECL competition binding assay (IGEN M8): peptide against GST-DBD binding to biotinylated ARE oligonucleotide.
Conditions: not given
In turn, Ac-DSSSEI-NH2 (also called Cmpd No. 37) [Ac-DSSSEI-NH2] displayed an IC50 of 20 µM.

The next assay deals with T1, glutathione S-transferase/human androgen receptor DNA binding domain (amino acids 505-635) (human), P10275.
T1 chain: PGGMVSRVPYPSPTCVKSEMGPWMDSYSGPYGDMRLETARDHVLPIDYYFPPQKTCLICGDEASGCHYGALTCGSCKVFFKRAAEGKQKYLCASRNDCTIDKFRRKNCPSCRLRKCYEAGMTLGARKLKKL
Described as above.
Conditions: not given
Ac-IESLSD-NH2 [Ac-IESLSD-NH2]: the IC50 was determined as 20 µM.
In turn, Ac-ESSSDE-NH2 [Ac-ESSSDE-NH2] registered an IC50 of 11 µM.

The target of a further assay is T2, glutathione S-transferase/human androgen receptor DNA binding domain (amino acids 505-635) (GST-DBD) (Homo sapiens, UniProt P10275).
T2 construct: gift of Dr. Steven Balk (neither purchased nor made by the applicant)
T2 sequence (P10275 505-635): T1 chain
The assay is described as follows: ARE binding assay (competition binding, electrochemiluminescence).
Conditions: not given
How it is done:
Anti-glutathione S-transferase monoclonal antibody was purchased from Upstate Biotechnology, Inc., Lake Placid, N.Y. (catalogue #05-311). Prior to ruthenium labeling, 1 mg/ml antibody was dialyzed against phosphate-buffered saline, pH 7.2, for 24 hours at 4° C. A 0.5 mg of antibody was incubated with 18.8 μg Origen TAG-succinimidyl ester (IGEN, International, Inc. Gaithersburg, Md., catalogue # 110034) for 1 hour at room temperature in the dark. The reaction was stopped with 20 μl 2M glycine for 10 minutes in the dark. Free label was removed with a NAP-5 column. Protein concentration was determined using the micro-BCA assay (catalogue #23235ZZ) from Pierce, Rockford, Ill.
Oligonucleotides were purchased from Integrated DNA Technologies, Inc., Coralville, Iowa. One nmole of each complementary oligonucleotide, Biotin-5′-[…]-3′ (SEQ ID NO:54) and 5′-[…]-3′ (SEQ ID NO:55) was added to 10 μl water and heated to 95° C. for 2 minutes. NaCl was added to a final concentration of 50 mM and the oligonucleotides were allowed to anneal at room temperature. After 1 hour, the annealed oligonucleotides were resuspended in 1 ml water.
The glutathione S-transferase/human androgen receptor DNA binding domain (amino acids 505-635) (GST-DBD) was obtained from Dr. Steven Balk. Synthesis of similar androgen receptor fusion proteins has been previously described (Sun, Z., Pan, J. and Balk, S. P. (1997) Nucleic Acids Research 25:3318-3325). The competition binding assay was performed in phosphate-buffered saline, pH 7.2, containing 100 ng/ml poly dI/dC (Sigma-Aldrich Co., St. Louis, Mo., catalogue #P4929) in a final volume of 0.2 ml by incubating 3 ng oligonucleotide, 200 ng GST-DBD, 30 ng antibody and the desired concentration of test compound. After 1.5 hours in the dark at room temperature, 12.5 μg streptavidin-coated M-280 Dynabeads (IGEN International, Inc. Gaithersburg, Md., catalogue # 402-175-02) were added and incubated while shaking for 30 minutes in the dark. Plates were analyzed on an IGEN M8 Electrochemiluminescence Detection Unit (IGEN, International, Inc. Gaithersburg, Md.).
In the case of “H-YGRKKRRQRRRGGGGLTIESSSDEE-NH2 [compound 54]”, the IC50 turned out to be 6.5 µM.

Still in this assay, the particulars now being: inhibition of binding of androgen receptor DNA binding domain to biotinylated ARE oligonucleotide; average where more than one assay, replications in parentheses; read-out: IC50.
As for “Ac-TIESSSDE-NH2 [compound 28, Ac-TIESSSDE-NH2]”, the IC50 came out at 22 µM.
As for “Ac-TPVSSMSSDL-NH2 [compound 14, Ac-TPVSSMSSDL-NH2]”, the IC50 worked out at 7.4 µM.
Same read-out and setting: in the case of “Ac-LTAESSSDEE-NH2 [compound 18, Ac-LTAESSSDEE-NH2]” it was 25 µM; in that of “Ac-LAIESSSDEE-NH2 [compound 17, Ac-LAIESSSDEE-NH2]”, 25 µM.
As for `CC[C@@H](C)[C@@H](NC(=O)[C@@H](CCC(=O)O)NC(=O)[C@@H](CO)NC(=O)[C@@H](CO)NC(=O)[C@@H](CO)NC(=O)[C@@H](CC(=O)O)NC(C)=O)C(N)=O` [compound 39, Ac-dsssei-NH2] (Ac-[dD][dS][dS][dS][dE][dI]-NH2), the IC50 is 20 µM.
The same measure, in the same setting: for “Ac-IASASD-NH2 [compound 33, Ac-IASASD-NH2]” the value was 20 µM; for “Ac-ESSSDE-NH2 [compound 50, Ac-ESSSDE-NH2]”, 11 µM; for “Ac-KPASVTVASDASKKIDVIDL-NH2 [compound 2]”, > 50 µM.
For the molecule “Ac-LTIESSSDEE-OH [compound 30, Ac-LTIESSSDEE-OH]”, the half-maximal inhibitory concentration (IC50) is 7.4 µM.
The same measure, in the same setting: for “Ac-IESASD-NH2 [compound 32, Ac-IESASD-NH2]” the value was 20 µM; for “Ac-SSSDEE-NH2 [compound 51, Ac-SSSDEE-NH2]”, 22 µM.
As for “Ac-IESSSDEE-NH2 [compound 48, Ac-IESSSDEE-NH2]”, the IC50 is > 50 µM.
Still for that read-out and setting: for “Ac-ATIESSSDEE-NH2 [compound 16, Ac-ATIESSSDEE-NH2]” the value was 25 µM.
“Ac-LTIESS-NH2 [compound 26, Ac-LTIESS-NH2]”: the 50% inhibitory concentration (IC50) was > 50 µM.
Still for that read-out and setting: in the case of “Ac-TIESSSDEE-NH2 [compound 27, Ac-TIESSSDEE-NH2]” it was 22 µM; in that of “Ac-KGVLMYQSSVRVPSVTSVDP-NH2 [compound 6]”, > 50 µM.
Still for that read-out and setting: in the case of “H-LTIESSSDEE-NH2 [compound 15, H-LTIESSSDEE-NH2]” it was 25 µM; in that of “Ac-VRVPSVTSVDPAAIPPSLTDY-NH2 [compound 7]”, > 50 µM; in that of “Ac-DSSSEI-NH2 [compound 37, Ac-DSSSEI-NH2]”, 20 µM.
Still for that read-out and setting: for “Ac-KVESSSVFS-NH2 [compound 9, Ac-KVESSSVFS-NH2]” the value was > 50 µM.
On to `CC[C@@H](C)[C@@H](NC(C)=O)C(=O)N[C@H](CCC(=O)O)C(=O)N[C@H](CO)C(=O)N[C@H](CO)C(=O)N[C@H](CO)C(=O)N[C@H](CC(=O)O)C(N)=O` [compound 38, Ac-iesssd-NH2] (Ac-[dI][dE][dS][dS][dS][dD]-NH2), for which the concentration for half-maximal inhibition (IC50) worked out at 20 µM.
Regarding “Ac-IESLSD-NH2 [compound 35, Ac-IESLSD-NH2]”, the IC50 was determined as 20 µM.
On the same count and under the same terms, in the case of “Ac-EDPPAKRKAIFMSETQSSPTK-NH2 [compound 4]” it was > 50 µM; in that of “Ac-LTIESSSDEEEDPPAKRKAIF-NH2 [compound 3]”, 22 µM.
Still for that read-out and setting: for “Ac-LTIESSSAEE-NH2 [compound 22, Ac-LTIESSSAEE-NH2]” the value was 20 µM.

For the next assay, the target named is T3, glutathione S-transferase/human androgen receptor DNA binding domain (amino acids 505-635) (human, UniProt P10275 505-635).
T3 construct: Fusion protein obtained from Dr. Steven Balk; also called GST-DBD; not shown: glutathione S-transferase fusion partner
T3 sequence (looked up): T1 chain
The assay is described as follows: ECL competition binding assay (IGEN M8): peptide against GST-DBD binding to biotinylated ARE oligonucleotide.
Conditions: not given
Ac-DSSSEI-NH2 (also called Cmpd No. 37) [Ac-DSSSEI-NH2] returned an IC50 of 20 µM.
B1: the IC50 was 15 µM.
B2 returned an IC50 of 5.6 µM.
Molecule B3 gave an IC50 of 63 µM.
For B4, the IC50 stood at 5.3 µM.
As to B5, the IC50 is 4.3 µM.
On the same count and under the same terms, in the case of B6 it was 12 µM; in that of B7, 40 µM; in that of B8, 28 µM.
With B9, the IC50 was 4.7 µM.
Same read-out and setting: in the case of Ac-LTIESSSDEA-NH2 (also called Cmpd No. 24) [Ac-LTIESSSDEA-NH2] it was 2.6 µM; in that of Ac-LTIESSSDAE-NH2 (also called Cmpd No. 23) [Ac-LTIESSSDAE-NH2], 14 µM; in that of Ac-LTIESASDEE-NH2 (also called Cmpd No. 21) [Ac-LTIESASDEE-NH2], 1.5 µM.
The same measure, in the same setting: for Ac-LTIASSSDEE-NH2 (also called Cmpd No. 19) [Ac-LTIASSSDEE-NH2] the value was 6.6 µM.
Same read-out and setting: in the case of Ac-LTIEASSDEE-NH2 (also called Cmpd No. 20) [Ac-LTIEASSDEE-NH2] it was 18 µM; in that of B10, 22 µM; in that of B11, 27 µM.
B12 registered an IC50 of 30 µM.
In the case of B13, the IC50 was 34 µM.
The same measure, in the same setting: for B14 the value was 19 µM.
Same read-out and setting: in the case of B15 it was 8.2 µM.

The target in a further assay is T1, glutathione S-transferase/human ….
Assay: not given
Conditions: not given
Consider H-YGRKKRRQRRRGGGGLTIESSSDEE-NH2 [H-…-NH2], for which the IC50 stood at 6.5 µM.
